Experiment [1] deals with T1, Hexokinase HKDC1 (Homo sapiens, UniProt Q2TB90).
T1 sequence (Q2TB90 whole entry): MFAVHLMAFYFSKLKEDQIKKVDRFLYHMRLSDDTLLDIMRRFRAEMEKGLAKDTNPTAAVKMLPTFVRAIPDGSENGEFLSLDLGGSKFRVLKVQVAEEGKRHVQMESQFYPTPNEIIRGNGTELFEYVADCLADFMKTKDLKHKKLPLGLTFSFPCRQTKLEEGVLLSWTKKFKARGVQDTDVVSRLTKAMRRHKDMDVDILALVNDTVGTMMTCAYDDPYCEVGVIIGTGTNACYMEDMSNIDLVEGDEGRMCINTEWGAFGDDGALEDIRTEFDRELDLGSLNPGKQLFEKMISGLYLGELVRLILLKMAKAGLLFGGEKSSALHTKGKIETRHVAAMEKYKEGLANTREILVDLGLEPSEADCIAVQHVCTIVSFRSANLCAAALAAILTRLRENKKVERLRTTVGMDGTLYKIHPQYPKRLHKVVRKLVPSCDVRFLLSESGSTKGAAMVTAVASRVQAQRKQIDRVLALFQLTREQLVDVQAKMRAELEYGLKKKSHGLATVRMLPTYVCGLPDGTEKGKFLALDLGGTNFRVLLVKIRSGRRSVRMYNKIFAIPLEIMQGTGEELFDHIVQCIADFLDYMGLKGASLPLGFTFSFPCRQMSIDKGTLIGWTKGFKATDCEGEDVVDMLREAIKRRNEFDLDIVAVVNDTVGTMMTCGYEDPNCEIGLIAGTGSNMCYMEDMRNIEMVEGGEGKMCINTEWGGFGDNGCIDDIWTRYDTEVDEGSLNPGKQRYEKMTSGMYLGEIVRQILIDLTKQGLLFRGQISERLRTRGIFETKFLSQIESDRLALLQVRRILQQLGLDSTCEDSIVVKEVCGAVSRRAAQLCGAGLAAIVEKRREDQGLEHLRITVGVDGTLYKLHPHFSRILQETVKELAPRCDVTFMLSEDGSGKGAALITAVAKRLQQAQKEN
Briefly: HKDC1 hexokinase inhibitors, dose response, biochemical, W721R variant (AID 504729). The experiment is classed as functional.

In experiment [2] the target is Protein disulfide-isomerase A6 (Homo sapiens, UniProt Q15084). As to the kind of experiment: inhibitors of ERp5-mediated insulin aggregation, dose response, biochemical, turbidity, absorbance 650 nm, cherry-picked samples (AID 720566).
Sequence of Protein disulfide-isomerase A6 (Q15084 whole entry): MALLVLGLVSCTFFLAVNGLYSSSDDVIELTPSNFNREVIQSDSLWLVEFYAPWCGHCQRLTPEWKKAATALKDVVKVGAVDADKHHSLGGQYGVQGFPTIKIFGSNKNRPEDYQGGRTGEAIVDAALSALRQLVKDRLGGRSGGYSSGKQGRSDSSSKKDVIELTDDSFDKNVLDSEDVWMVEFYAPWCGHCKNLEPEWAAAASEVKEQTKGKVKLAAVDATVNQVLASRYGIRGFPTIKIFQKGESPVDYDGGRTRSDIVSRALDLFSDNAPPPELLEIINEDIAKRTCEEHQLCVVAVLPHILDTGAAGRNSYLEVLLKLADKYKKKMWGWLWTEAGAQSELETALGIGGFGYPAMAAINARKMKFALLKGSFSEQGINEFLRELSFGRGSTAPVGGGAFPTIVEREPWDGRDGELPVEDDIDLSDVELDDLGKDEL
The target of experiment [3] is T2, Dual specificity protein phosphatase 6 (Rattus norvegicus, UniProt Q64346).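 Further: confirmatory in vitro dose-response testing of MKP-3 inhibition; recombinant His-tagged MKP-3 made in E. coli BL21 with OMFP substrate.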
T2 sequence (Q64346 whole entry): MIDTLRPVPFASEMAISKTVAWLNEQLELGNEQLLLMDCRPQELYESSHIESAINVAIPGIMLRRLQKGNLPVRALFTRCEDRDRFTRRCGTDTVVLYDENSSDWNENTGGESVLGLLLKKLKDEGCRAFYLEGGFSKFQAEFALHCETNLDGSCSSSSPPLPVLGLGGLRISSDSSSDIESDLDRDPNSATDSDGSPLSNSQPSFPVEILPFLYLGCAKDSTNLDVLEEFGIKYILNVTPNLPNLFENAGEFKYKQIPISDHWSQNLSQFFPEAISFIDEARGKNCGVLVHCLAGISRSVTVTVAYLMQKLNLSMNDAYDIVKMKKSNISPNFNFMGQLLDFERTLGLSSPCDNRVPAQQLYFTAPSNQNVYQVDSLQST
The experiment is classed as functional.

Experiment [4] deals with T3, Sentrin-specific protease 7 (Homo sapiens, UniProt Q9BQF6).
T3 sequence (Q9BQF6 whole entry): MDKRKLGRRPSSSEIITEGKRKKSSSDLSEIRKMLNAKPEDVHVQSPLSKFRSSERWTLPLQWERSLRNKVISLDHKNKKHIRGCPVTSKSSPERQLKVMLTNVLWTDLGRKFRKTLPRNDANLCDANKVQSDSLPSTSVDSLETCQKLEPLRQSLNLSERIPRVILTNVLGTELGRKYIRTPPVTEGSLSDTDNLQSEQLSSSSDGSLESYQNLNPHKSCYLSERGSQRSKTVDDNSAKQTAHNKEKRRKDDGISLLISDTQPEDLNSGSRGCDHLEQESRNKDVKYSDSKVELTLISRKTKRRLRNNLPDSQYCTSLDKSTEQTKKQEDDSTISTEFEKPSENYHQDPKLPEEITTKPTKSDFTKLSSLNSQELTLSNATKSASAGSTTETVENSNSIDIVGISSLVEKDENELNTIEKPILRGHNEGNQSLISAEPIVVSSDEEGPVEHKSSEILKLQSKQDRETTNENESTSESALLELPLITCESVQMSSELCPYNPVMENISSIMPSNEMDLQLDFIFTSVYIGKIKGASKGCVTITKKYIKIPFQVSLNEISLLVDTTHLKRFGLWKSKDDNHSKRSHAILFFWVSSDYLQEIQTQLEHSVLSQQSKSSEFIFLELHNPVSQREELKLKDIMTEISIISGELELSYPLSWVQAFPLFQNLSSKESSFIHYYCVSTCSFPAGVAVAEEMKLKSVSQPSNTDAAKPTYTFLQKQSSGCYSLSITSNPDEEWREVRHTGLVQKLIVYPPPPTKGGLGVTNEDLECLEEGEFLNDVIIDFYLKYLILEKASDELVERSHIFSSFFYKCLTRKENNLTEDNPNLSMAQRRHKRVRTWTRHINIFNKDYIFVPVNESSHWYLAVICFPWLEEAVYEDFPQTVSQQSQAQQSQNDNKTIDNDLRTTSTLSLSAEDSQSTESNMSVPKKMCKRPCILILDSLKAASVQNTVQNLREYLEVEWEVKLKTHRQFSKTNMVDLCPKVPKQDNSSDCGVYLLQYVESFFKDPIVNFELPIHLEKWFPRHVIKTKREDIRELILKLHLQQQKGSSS
The class given is functional.

Usually IC50 stands for the concentration at which inhibition is half-maximal. The term AC50 denotes the midpoint of the concentration-response curve, whichever way the signal moves.

Several values for one entry are separate records, joined by “and”; a condition that tells them apart may be missing. Identical values can stand only once. Activity calls are given as the source filed them.

As to `COC(=O)c1cc(C)nc2c1C(=O)C(=O)C=C2N1CCOCC1`, in experiment [1], the concentration for half-maximal inhibition (IC50) is 4.41 µM (active). In addition, the AC50 in experiment [2] is 45.1 µM (active).
`NS(=O)(=O)c1cc(C(=O)NC2CCSc3ccccc32)ccc1Cl` (centres undefined): the half-maximal inhibitory concentration (IC50) in experiment [3] is 2.96 µM (active) and > 100 µM (inactive).
Turning to `CCOC(=O)C1=C(C)OC2(O)c3ccccc3C(=O)C12O` (centres undefined), the half-inhibitory concentration (IC50) in experiment [4] was 3.27 µM (active).

The record behind these values is ChEMBL document CHEMBL1201862, “PubChem BioAssay data set” (2004).
